Results published in patent US7776873B2, “Method for treating damage to gastric mucosa” (Yuhan Corporation, priority 2005, dated 2010).

Experiments:
[1] = system: human gastric epithelial (AGS) cells infected with H. pylori (ATCC 43504); assay: Incidence of H. pylori-induced cell death (MTT assay-1); type: cell-based; conditions: 50 uM pretreatment for 16 hours, then 48-hour H. pylori infection, FIG. 1
Description: In order to determine cytoprotective properties of revaprazan against H. pylori infection, gastric mucosal cells were pretreated with revaprazan and rebamipide prior to H. pylori infection, and the incidence of cell death was measured. Rebamipide, known to have cytoprotective properties, was used as a control drug.
The human gastric epithelial (AGS, KCLB 21739) cells were seeded onto 96-well plate at 5×10^4 cells/ml and cultured in RPMI 1640 (Gibco BRL, Grand Island, N.Y., U.S.A.), supplemented with 100 units/mL penicillin, 100 ug/mL streptomycin, and 10% FBS (Fetal Bovine Serum). Revaprazan and rebamipide, dissolved in sterilized water, were added to AGS cells to reach a final concentration of 50 uM and the cells were incubated at 37° C. for 16 hours. To remove RPMI 1640 media, the plate was centrifuged at 24° C., 3000 rpm for 5 minutes and washed three times with PBS (137 mM NaCl, 2.7 mM KCl, 10 mM Na2HPO4, and 2 mM KH2PO4). For inoculation, H. pylori (ATCC 43504) cultures were resuspended in PBS and cocultured with AGS cells at a final concentration of 5×10^8 CFU/ml. After 48 hours of incubation at 37° C., the culture was centrifuged at 24° C., 3000 rpm for 5 minutes to remove the culture medium, i.e., RPMI 1640, and then total viable cell numbers were assessed by MTT (3-[4,5-dimethylthiazol-2-yl]-2,5-diphenyl tetrazolim bromide) assay method. 1 mg/ml of an MTT solution prepared by dissolving MTT (Amresco, Ohio, U.S.A.) in PBS (137 mM NaCl, 2.7 mM KCl, 10 mM Na2HPO4, and 2 mM KH2PO4) was added to each well (50 μl/well), followed by incubation at 37° C. for 4 hours. The supernatant was then removed by centrifugation at 24° C., 3000 rpm for 5 minutes and the formazan grains formed by the viable cells were dissolved in 99.5% dimethyl sulfoxide (DMSO) (Kanto, Tokyo, Japan) (50 μl/well), and the optical intensity was measured at 540 nm using an ELISA reader (TECAN, Maennedorf, Switzerland).

[2] = system: rat gastric mucosal (RGM-1) cells; assay: Incidence of ethanol-induced cell death (MTT assay-2); type: cell-based; conditions: 50 uM pretreatment for 16 hours, then 200 mM ethanol for 16 hours, FIG. 2
Description: The rat gastric mucosal (RGM-1, RIKEN cell bank, Japan) cells were seeded onto 96-well plate at 5×10^4 cells/ml and cultured in DMEM-F12 (Gibco BRL, Grand Island, N.Y., U.S.A.), supplemented with 100 units/mL penicillin, 100 ug/mL streptomycin, and 10% FBS (Fetal Bovine Serum). […] To remove DMEM-F12 media, the plate was centrifuged at 24° C., 3000 rpm for 5 minutes and washed three times with PBS (137 mM NaCl, 2.7 mM KCl, 10 mM Na2HPO4, and 2 mM KH2PO4). Then, ethanol-containing media (200 mM ethanol-containing DMEM-F12, supplemented with 100 units/mL penicillin, 100 ug/mL streptomycin, and 10% FBS) was added to the cells, and the cells were cultured at 37° C. for 16 hours. After the incubation, the culture was centrifuged at 24° C., 3000 rpm for 5 minutes to remove the culture medium and then total viable cell numbers were assessed by MTT (3-[4,5-dimethylthiazol-2-yl]-2,5-diphenyl tetrazolim bromide) assay method. 1 mg/ml of an MTT solution prepared by dissolving MTT (Amresco, Ohio, U.S.A.) in PBS (137 mM NaCl, 2.7 mM KCl, 10 mM Na2HPO4, and 2 mM KH2PO4) was added to each well (50 μl/well), followed by incubation at 37° C. for 4 hours. The supernatant was then removed by centrifugation at 24° C., 3000 rpm for 5 minutes and the formazan grains formed by the viable cells were dissolved in 99.5% dimethylsulfoxide (DMSO) (Kanto, Tokyo, Japan) (50 μl/well), and the optical intensity was measured at 540 nm using an ELISA reader (TECAN, Maennedorf, Switzerland).

[3] = system: indomethacin-induced gastric mucosal lesions; assay: Preventive effect on NSAID-induced gastropathy; type: in vivo, Sprague Dawley male rats; conditions: rats, oro-gastric pretreatment (revaprazan 5, 10 mg/kg; rebamipide 30 mg/kg; omeprazole 5 mg/kg) prior to indomethacin 40 mg/kg for 12 hrs, FIG. 8
Description: Six-week old specific-pathogen-free (SPF) Sprague Dawley male rats (Charles River, Tokyo, Japan) were used for experiments. The rats were fed a sterilized commercial pellet diet (Biogenomics Co., Seoul, Korea), given sterile water ad libitum, and housed in air-conditioned biohazard room with a 12-h light:12-h dark cycle. The rats were food-deprived 24 hours, and then administered with 5, 10 mg/kg revaprazan, 30 mg/kg rebamipide and 5 mg/kg omeprazole suspended in 0.5% CMC (carboxymethylcellulose) via oro-gastric tube prior to exposure to indomethacin (40 mg/kg for 12 hrs). Phosphate-buffered saline was perfused into the gastric lumen of the rats to swell the stomachs. Then, the stomachs were opened by an incision along the greater curvature, and the total area of the gastric mucosal lesions was calculated to obtain the average size of the lesions.

## O=C(NC(Cc1cc(=O)[nH]c2ccccc12)C(=O)O)c1ccc(Cl)cc1 (stereo not drawn) [rebamipide, reference compound]
[1]
  gastric mucosal cytotoxicity by H. pylori infection: significantly reduced
[2]
  ethanol-induced gastric mucosal cytotoxicity: significantly reduced
[3]
  hemorrhagic gastric mucosal lesions after pretreatment: hemorrhagic lesions are observed
